Data as given in patent US20090170867A1, “TRPV1 ANTAGONISTS INCLUDING SULFONAMIDE SUBSTITUENT AND USES THEREOF” (Shionogi & Co., Ltd., priority 2007, published 2009).

Experiments:
[1] = molecular target: T1, human TRPV1 (Homo sapiens, UniProt Q8NER1); experiment: pH-based assay, Protocol 2 (TRPV1/CHO cells, Fura-2 AM, FDSS-3000, pH 5.0-5.1); type: cell-based; settings: H2SO4 agonist, mean ± SEM, number of trials in parentheses, read-out: TRPV1 IC50 Potency, Human pH CHO (hpH-CHO)
T1 construct: using primers designed surrounding the complete hTRPV1 open reading frame; expressed in transfected cells; host or cells: CHO-K1 cells stably transfected with pcDNA3.1(-)-hVR1 plasmid
T1 sequence (Q8NER1 whole entry): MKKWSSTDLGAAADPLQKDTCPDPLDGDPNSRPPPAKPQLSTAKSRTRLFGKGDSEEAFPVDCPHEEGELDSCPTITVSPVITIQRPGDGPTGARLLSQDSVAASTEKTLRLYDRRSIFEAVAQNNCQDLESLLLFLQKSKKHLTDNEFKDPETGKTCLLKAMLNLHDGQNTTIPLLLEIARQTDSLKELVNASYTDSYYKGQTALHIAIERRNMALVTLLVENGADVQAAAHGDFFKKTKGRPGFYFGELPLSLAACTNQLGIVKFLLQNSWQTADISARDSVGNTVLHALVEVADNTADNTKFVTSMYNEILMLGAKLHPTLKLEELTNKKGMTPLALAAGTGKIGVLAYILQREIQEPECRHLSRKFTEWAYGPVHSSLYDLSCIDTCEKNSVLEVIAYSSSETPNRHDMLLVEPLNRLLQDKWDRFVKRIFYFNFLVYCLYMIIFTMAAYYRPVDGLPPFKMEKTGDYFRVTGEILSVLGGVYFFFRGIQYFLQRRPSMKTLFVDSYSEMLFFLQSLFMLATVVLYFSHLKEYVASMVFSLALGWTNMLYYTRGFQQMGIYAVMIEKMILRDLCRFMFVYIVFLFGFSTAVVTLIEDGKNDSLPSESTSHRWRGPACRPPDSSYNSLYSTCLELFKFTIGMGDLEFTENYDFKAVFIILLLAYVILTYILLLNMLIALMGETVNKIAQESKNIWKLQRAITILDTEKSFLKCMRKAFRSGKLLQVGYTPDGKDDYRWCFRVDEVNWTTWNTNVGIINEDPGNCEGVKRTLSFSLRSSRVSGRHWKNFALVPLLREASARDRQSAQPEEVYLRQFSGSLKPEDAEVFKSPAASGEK
Source text: For Protocol 2, a Chinese Hamster Ovary cell line (CHO) that has been engineered to constitutively express human recombinant TRPV1 was used (TRPV1/CHO cells). The TRPV1/CHO cell line was generated as described below.
The resulting PCR products were purified from agarose gels using Gel Band Purification Kit (GE Healthcare Bioscience) and were subcloned into pCR-Blunt vector (Invitrogen). The cloned cDNA was fully sequenced using a fluorescent dye-terminator reagent (BigDye Terminator ver3.1 Cycle Sequencing Kit, Applied Biosystems) and ABI Prism 3100 genetic analyzer (Applied Biosystems). The pCR-Blunt vector containing the hTRPV1 cDNA was subjected to restriction digestion with EcoRI. The restriction fragment was subcloned into expression vector pcDNA3.1 (−) (Invitrogen) and named pcDNA3.1 (−)-hVR1 plasmid. The sequence of the cDNA encoding TRPV1 is available at GenBank accession number AJ277028.
CHO-K1 cells were maintained in growth medium consisting of α-MEM, 10% FBS (Hyclone), and 100 IU/mL of penicillin-100 μg/mL of streptomycin mixed solution (Nacalai Tesque, Japan) at 37° C. in an environment of humidified 95% air and 5% CO2. The cells were transfected with the pcDNA3.1 (−)-hVR1 plasmid using FuGENE6 (Roche) according to the manufacturer's protocol. 24 hr after transfection, neomycin-resistant cells were selected using 1 mg/mL G418 (Nacalai Tesque). After 2 weeks, individual colonies were picked, expanded, and screened for the expression of hTRPV1 in the capsaicin-induced Ca^2+ influx assay (see below) with a FLIPR (Molecular Devices). A clone with the largest Ca^2+ response to capsaicin was selected and re-cloned by the same procedure. The cells expressing hTRPV1 were cultured in the growth medium supplemented with 1 mg/mL G418.
TRPV1/CHO cells were seeded in the 96-well clear-bottom black-wall plate (Nunc) at densities of 1-2×10^4 cells/well and grown in 100 μL of culture medium (alpha-MEM supplemented with 10% FBS, 20 mM HEPES, 1 mg/mL geneticin and 1% antibiotic-antimycotic mixed stock solution) for 1-2 days before the experiment.
Different agonist solutions with sulfuric acid concentrations of from 15 mM to 18 mM (see FIG. 1) were prepared by diluting 1M sulfuric acid with measuring buffer. The different sulfuric acid concentrations in the agonist solutions were selected such that a 1:4 dilution would result in a final sulfuric acid concentration of between 3.0 mM to 3.6 mM, respectively, as indicated in FIG. 1.
The cells were stimulated using 3.0 mM (well number B1-6), 3.1 mM (C1-6), 3.2 mM (D1-6), 3.3 mM (E1-6), 3.4 mM (F1-6), 3.5 mM (G1-6), or 3.6 mM (H1-6) H2SO4 or pH 7.2 measuring buffer without H2SO4 (A1-6) (FIG. 2).
(1) Culture medium was removed using an 8-channel-pipette (Rainin, USA) from the 96-well plate and the wells were refilled with 100 μL of loading buffer (20 mM HEPES, 115 mM NaCl, 5.4 mM KCl, 0.8 mM MgCl2, 1.8 mM CaCl2, 13.8 mM D-glucose, 2.5 mM probenecid, pH 7.4) containing 5 μM Fura-2 AM (Dojin, Japan).
(2) The 96-well plate was incubated at 37° C. for 45 min.
(3) The loading buffer was removed from each well. The cells were subsequently washed twice with 150 μL of measuring buffer (20 mM HEPES, 115 mM NaCl, 5.4 mM KCl, 0.8 mM MgCl2, 5.0 mM CaCl2, 13.8 mM D-glucose, 0.1% BSA, pH 7.4) (no probenecid). The wells were then refilled with 80 μL of measuring buffer.
(4) After an incubation at 4° C. for 15 min, the 96-well plate was transferred to FDSS-3000 (Hamamatsu Photonics, Japan).
(5) The Fura-2 fluorescent intensity was monitored at a wavelength of 340 nm and at 380 nm, respectively, at a rate of 0.5 Hz for a total of 240 seconds.

[2] = molecular target: T1, human TRPV1; experiment: Capsaicin-based assay, Protocol 2 (TRPV1/CHO cells, Fluo-4, FLIPR); type: cell-based; settings: capsaicin 100 nM final, mean ± SEM, number of trials in parentheses, read-out: TRPV1 IC50 Potency, Human Capsaicin CHO (hCAP-CHO)
Source text: The TRPV1/CHO cell line was generated as described below. […] The resulting PCR products were purified from agarose gels using Gel Band Purification Kit (GE Healthcare Bioscience) and were subcloned into pCR-Blunt vector (Invitrogen). The cloned cDNA was fully sequenced using a fluorescent dye-terminator reagent (BigDye Terminator ver3.1 Cycle Sequencing Kit, Applied Biosystems) and ABI Prism 3100 genetic analyzer (Applied Biosystems). The pCR-Blunt vector containing the hTRPV1 cDNA was subjected to restriction digestion with EcoRI. The restriction fragment was subcloned into expression vector pcDNA3.1 (-) (Invitrogen) and named pcDNA3.1 (-)-hVR1 plasmid. The sequence of the cDNA encoding TRPV1 is available at GenBank accession number AJ277028. […] The cells were transfected with the pcDNA3.1 (-)-hVR1 plasmid using FuGENE6 (Roche) according to the manufacturer's protocol. 24 hr after transfection, neomycin-resistant cells were selected using 1 mg/mL G418 (Nacalai Tesque). […] The cells expressing hTRPV1 were cultured in the growth medium supplemented with 1 mg/mL G418. […] Subsequently, the cells were loaded by incubation in 0.1 mL of wash buffer containing Fluo-4 at 3 μM final concentration. After 1 hour, the cells were washed twice with 0.2 mL wash buffer and resuspended in 0.1 mL wash buffer. The plates were then transferred to a Fluorescence Imaging Plate Reader (Molecular Devices). Fluorescence intensity was monitored for 15 seconds to establish a baseline. […] The final concentration of the compound was adjusted to range from 100 μM to 1.5625 μM. […] Data were collected over the entire time course and analyzed using Excel and the curve-fitting formula GraphPad Prism.

SMILES	IC50 [1] [nM]	IC50 [2] [nM]
O=C(Nc1ccc(Br)c(C(F)(F)F)c1)N1CCC(F)(c2ncc([C@H](O)CO)cc2Cl)CC1 [Compound B5]	15 ± 3	106 ± 21
O=C(Nc1ccc(C(F)(F)F)c(F)c1)N1CC=C(c2ncccc2F)CC1 [Compound 202]	590	182
O=C(Nc1ccc(C(F)(F)F)cn1)N1CCC(F)(c2ncc([C@@H](O)CO)cc2Cl)CC1 [Compound D4]	54.8	69.6 ± 6.9
COCc1cnc(C2=CCN(C(=O)Nc3ccc(C(F)(F)F)cc3)CC2)c(Cl)c1 [Compound F3]	585	916 ± 306
O=C(Nc1ccc(OC(F)(F)F)cc1)N1CC=C(c2ncc(CO)cc2Cl)CC1 [Compound Q2]	85.9 ± 21.8	194 ± 27.1
Cc1ccc(NC(=O)N2CC=C(c3ncc([C@H](O)CO)cc3Cl)CC2)cc1C(F)(F)F [Compound I5]	118 ± 27.5	709 ± 94.1
O=C(Nc1ccc(Cl)c(C(F)(F)F)c1)N1CCC(F)(c2ncc([C@H](O)CO)cc2F)CC1 [Compound E5]	33.8	133 ± 28.5
O=C(Nc1ccc(C(F)(F)F)c(F)c1)N1CC=C(c2ncc(CO)cc2Cl)CC1 [Compound M2]	42 ± 9.1	156 ± 5.6
O=C(Nc1nc2ccc(Cl)cc2s1)N1CCC(F)(c2ncc([C@@H](O)CO)cc2F)CC1 [Compound Z5]	16.4 ± 1.9	35.5 ± 3.9
O=C(Nc1ccc(C(F)(F)F)cn1)N1CCC(F)(c2ncc([C@H](O)CO)cc2Cl)CC1 [Compound G1]	16.4	31.3 ± 8.8
O=C(Nc1ccc(OCC2CC2)c(C(F)(F)F)c1)N1CC=C(c2ncc(CO)cc2Cl)CC1 [Compound Y2]	59.9 ± 11.8	351 ± 69.8
O=C(Nc1ccc(C(F)(F)F)cc1)N1CC=C(c2ncc(C(F)(F)CO)cc2Cl)CC1 [Compound F4, 4-(3-chloro-5-(1,1-difluoro-2-hydroxyethyl)pyridin-2-yl)-N-(4-(trifluoromethyl)phenyl)-5,6-dihydropyridine-1(2H)-carboxamide]	32.5 ± 2.4	86.7 ± 18.9
O=C(Nc1nc2ccc(Cl)cc2s1)N1CCC(F)(c2ncc([C@H](O)CO)cc2F)CC1 [Compound W3]	22.4	35.6 ± 8.9
CC(C)(C)c1ccc(NC(=O)N2CC=C(c3ncc([C@H](O)CO)cc3Cl)CC2)cc1 [Compound I1, (S)-3-Chloro-5-(1,2-dihydroxy-ethyl)-3′,6′-dihydro-2′H-[2,4′]bipyridinyl-1′-carboxylic acid (4-tert-butyl-phenyl)amide]	1.1 ± 0.2	33.8 ± 9.1
COc1cc(NC(=O)N2CCC(F)(c3ncc([C@H](O)CO)cc3F)CC2)ccc1C(F)(F)F [Compound C5]	39.9 ± 7.9	108 ± 38.4
O=C(Nc1ccc(C(F)(F)F)c(F)c1)N1CC=C(c2ncc([C@H](O)CO)cc2F)CC1 [Compound J1]	18	34.5 ± 17.5
O=C(Nc1ccc(C(F)(F)F)cc1)N1CC=C(c2ncc([C@@H](O)CO)cc2Cl)CC1 [Compound L3]	38.3 ± 4	37.1 ± 14.8

SMILES	IC50 [1] [nM]	IC50 [2] [nM]
O=C(Nc1nc2ccc(Cl)cc2s1)N1CC=C(c2ncc([C@H](O)CO)cc2F)CC1 [Compound C4]	18.6 ± 2.8	66.2 ± 7.5
CCOc1cc(NC(=O)N2CC=C(c3ncc(CO)cc3Cl)CC2)ccc1C(F)(F)F [Compound N2]	27.3 ± 2.6	161 ± 16.6
O=C(Nc1ccc(Br)c(C(F)(F)F)c1)N1CC=C(c2ncc([C@H](O)CO)cc2Cl)CC1 [Compound P2]	44.4	173 ± 40.3
O=C(Nc1ccc(Cl)c(C(F)(F)F)c1)N1CCC(F)(c2ncc([C@H](O)CO)cc2Cl)CC1 [Compound T1]	29.7 ± 2.3	60.3 ± 19
O=C(Nc1ccc(C(F)(F)F)c(Cl)c1)N1CC=C(c2ncc(CO)cc2Cl)CC1 [Compound L2]	57.4 ± 9.1	153 ± 24.4
O=C(Nc1ccc(C(F)(F)F)c(Cl)c1)N1CCC(F)(c2ncc([C@@H](O)CO)cc2Cl)CC1 [Compound T3]	12.9	23.8 ± 6.8
O=C(Nc1ccc(OC(F)(F)F)cc1)N1CCN(c2ncc([C@H](O)CO)cc2Cl)CC1 [Compound L6, (S)-4-(3-chloro-5-(1,2-dihydroxyethyl)pyridin-2-yl)-N-(4-(trifluoromethoxy)phenyl)piperazine-1-carboxamide]	5.8	14.2 ± 1.4
O=C(Nc1ccc(S(=O)(=O)C(F)(F)F)cc1)N1CC=C(c2ncc(CO)cc2Cl)CC1 [Compound C2]	41.8 ± 3.8	98.7 ± 33.9
O=C(Nc1nc2ccc(Cl)cc2s1)N1CC=C(c2ncc([C@H](O)CO)cc2Cl)CC1 [Compound W1]	9.3 ± 1.9	68.9 ± 18.4
O=C(Nc1ccc(C(F)(F)F)cc1)N1CCC(F)(c2ncccc2Cl)CC1 [Compound 203]	51.2	90.2
COCc1cnc(C2=CCN(C(=O)Nc3ccc(S(=O)(=O)C(F)(F)F)cc3)CC2)c(Cl)c1 [Compound A3]	310 ± 38.9	414 ± 99.6
O=C(Nc1ccc(C(F)(F)F)c(Cl)c1)N1CC=C(c2ncc([C@@H](O)CO)cc2Cl)CC1 [Compound M3]	30 ± 2.1	187 ± 43.7
O=C(Nc1nc2ccc(F)cc2s1)N1CC=C(c2ncc(CO)cc2Cl)CC1 [Compound W2]	241 ± 34.9	245 ± 34.4
O=C(Nc1ccc(C(F)(F)F)c(Cl)c1)N1CC=C(c2ncc(CO)cc2Cl)CC1 [Compound S2]	31.9 ± 2.5	205 ± 35.4
O=C(Nc1ccc(OC(F)(F)F)cc1)N1CC=C(c2ncc([C@H](O)CO)cc2F)CC1 [Compound V1]	22.4 ± 1.1	66.3 ± 5.7
O=C(Nc1nc2ccc(F)cc2s1)N1CCC(F)(c2ncc([C@@H](O)CO)cc2Cl)CC1 [Compound H4]	97 ± 9.9	176 ± 28.4
O=C(Nc1ccc(C(F)(F)F)cn1)N1CCC(F)(c2ncc([C@@H](O)CO)cc2F)CC1 [Compound Y5]	108 ± 7.7	196 ± 37.7
